Test results published in patent US10981926B2 (Janssen Pharmaceutica NV, priority 2016, dated 2021).

Key:
Type in all cases: cell-based
[1] = target: T1, F876L mutant Androgen Receptor (AR-F876L) (Homo sapiens (Human), UniProt P10275, F877L); assay: LNCaP-AR-F876L AG reporter assay (agonist mode); details: for Emax: read-out: LNCaP-AR-F876L AG MAX % Stim; for EC50: read-out: LNCaP-AR-F876L AG pEC50 (converted)
[2] = target: T1, F876L mutant Androgen Receptor (AR-F876L); assay: LNCaP-AR-F876L ANT reporter assay (antagonist mode); details: for Emax: read-out: LNCaP-AR-F876L ANT MAX % Inh; for IC50: read-out: LNCaP-AR-F876L ANT pIC50 (converted)
[3] = target: T2, wild-type Androgen Receptor (AR-wt) (Homo sapiens (Human), UniProt P10275); assay: LNCaP-AR-wt ANT reporter assay (antagonist mode); details: for Emax: read-out: LNCaP-AR-wt ANT MAX % Inh; for IC50: read-out: LNCaP-AR-wt ANT pIC50 (converted)
[4] = target: T2, wild-type Androgen Receptor (AR-wt); assay: LNCaP-AR-wt AG reporter assay (agonist mode); details: for Emax: read-out: LNCaP-AR-wt AG MAX % Stim; for EC50: read-out: LNCaP-AR-wt AG pEC50 (converted)
[5] = agonist mode, maximum % stimulation over tested concentration range
[6] = agonist mode, pEC50 = −Log10(EC50 in Molar)
[7] = antagonist mode, maximum % inhibition of R1881 control response over tested concentration range
[8] = antagonist mode, pIC50 = −Log10(IC50 in Molar)
[9] = maximum % stimulation (agonist response) over the tested concentration range
[10] = maximum % inhibition of R1881 control response over the tested concentration range

T2 sequence (P10275 whole entry): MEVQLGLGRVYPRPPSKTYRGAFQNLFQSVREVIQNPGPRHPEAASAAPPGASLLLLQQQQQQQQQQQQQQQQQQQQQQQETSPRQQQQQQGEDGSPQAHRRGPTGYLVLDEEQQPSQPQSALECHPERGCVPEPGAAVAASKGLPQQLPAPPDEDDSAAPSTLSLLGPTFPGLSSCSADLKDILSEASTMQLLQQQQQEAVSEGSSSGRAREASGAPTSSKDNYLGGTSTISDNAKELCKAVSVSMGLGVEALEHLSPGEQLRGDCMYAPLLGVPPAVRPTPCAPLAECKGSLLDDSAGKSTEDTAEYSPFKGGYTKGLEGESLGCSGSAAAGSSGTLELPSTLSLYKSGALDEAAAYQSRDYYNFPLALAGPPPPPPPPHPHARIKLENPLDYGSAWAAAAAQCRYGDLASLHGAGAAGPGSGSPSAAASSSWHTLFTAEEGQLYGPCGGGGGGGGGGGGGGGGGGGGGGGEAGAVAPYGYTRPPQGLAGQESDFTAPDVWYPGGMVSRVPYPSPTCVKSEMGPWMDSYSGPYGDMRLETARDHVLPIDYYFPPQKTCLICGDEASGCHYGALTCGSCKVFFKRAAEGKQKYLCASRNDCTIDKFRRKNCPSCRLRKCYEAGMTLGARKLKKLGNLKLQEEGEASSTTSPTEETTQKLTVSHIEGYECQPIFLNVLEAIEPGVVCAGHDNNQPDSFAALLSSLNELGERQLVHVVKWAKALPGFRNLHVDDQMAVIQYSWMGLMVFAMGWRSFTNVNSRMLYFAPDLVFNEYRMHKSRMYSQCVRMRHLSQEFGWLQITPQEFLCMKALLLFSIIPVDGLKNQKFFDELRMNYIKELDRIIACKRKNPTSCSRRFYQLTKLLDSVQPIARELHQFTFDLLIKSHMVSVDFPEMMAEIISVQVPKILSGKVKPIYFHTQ
T1 sequence (P10275 whole entry F877L): as the sequence (P10275 whole entry) above, with F877L counted along it

Molecule	Emax [1, 5] [%]	EC50 [1, 6] [nM]	Emax [2, 7] [%]	IC50 [2, 8] [nM]	Emax [3, 7] [%]	IC50 [3, 8] [nM]	Emax [4, 5] [%]	EC50 [4, 6] [nM]	LNCaP-AR-F876L AG pEC50 [1, 6]	LNCaP-AR-F876L AG MAX % Stim [1, 9] [%]	LNCaP-AR-F876L ANT pIC50 [2, 8]	LNCaP-AR-F876L ANT MAX % Inh [2, 10] [%]	LNCaP-AR-wt ANT pIC50 [3, 8]	LNCaP-AR-wt ANT MAX % Inh [3, 10] [%]	LNCaP-AR-wt AG pEC50 [4, 6]	LNCaP-AR-wt AG MAX % Stim [4, 9] [%]	Emax [1, 9] [%]	Emax [2, 10] [%]	Emax [3, 10] [%]	Emax [4, 9] [%]
N#Cc1ncc(N2C(=O)C3(CCC3)N(c3ccc4[nH]c(CCO)nc4c3)C2=S)cc1C(F)(F)F	0.1	> 15100	100	832	0	1740	0.4	> 15100	–	–	–	–	–	–	–	–	–	–	–	–
3-chloro-5-[8-[1-(2-methoxyethyl)indazol-5-yl]-5-oxo-7-thioxo-6,8-diazaspiro[3.4]octan-6-yl]pyridine-2-carbonitrile [Cpd 171]	–	–	–	–	–	–	–	–	<4.82	0.1	6.80	100.8	6.45	101.3	<4.82	0.2	–	–	–	–
N#Cc1ncc(N2C(=O)C3(CCC3)N(c3ccc(OC4CCNCC4(F)F)cc3)C2=S)cc1C(F)(F)F (racemic) [Cpd 136, (R,S)-5-[8-[4-[(3,3-difluoro-4-piperidyl)oxy]phenyl]-5-oxo-7-thioxo-6,8-diazaspiro[3.4]octan-6-yl]-3-(trifluoromethyl)pyridine-2-carbonitrile]	–	> 15100	–	126	–	132	–	> 15100	–	–	–	–	–	–	–	–	0.3	102	105	-0.1
CN1CCC(Oc2ccc(N3C(=S)N(c4cnc(C#N)c(C(F)(F)F)c4)C(=O)C34CCC4)cc2)C(F)(F)C1 (racemic) [Cpd 137, (R,S)-5-[8-[4-[(3,3-difluoro-1-methyl-4-piperidyl)oxy]phenyl]-5-oxo-7-thioxo-6,8-diazaspiro[3.4]octan-6-yl]-3-(trifluoromethyl)pyridine-2-carbonitrile]	–	> 15100	–	83.2	–	49	–	> 15100	–	–	–	–	–	–	–	–	0.9	98.7	102	0.3
N#Cc1ncc(N2C(=O)C3(CCC3)N(c3ccc(OC4CCNC5(CCC5)C4)cc3)C2=S)cc1C(F)(F)F (racemic) [Cpd 151, (R,S)-5-[8-[4-(9-azaspiro[3.5]nonan-6-yloxy)phenyl]-5-oxo-7-thioxo-6,8-diazaspiro[3.4]octan-6-yl]-3-(trifluoromethyl)pyridine-2-carbonitrile]	–	> 15100	–	145	–	234	–	> 15100	–	–	–	–	–	–	–	–	-0.1	104	106	0
CN1CC[C@@H](Oc2ccc(N3C(=S)N(c4cnc(C#N)c(C(F)(F)F)c4)C(=O)C34CCC4)cc2)C[C@H]1C(F)(F)F (racemic) [Cpd 158, 5-[8-[4-[[(2SR, 4RS)-1-methyl-2-(trifluoromethyl)-4-piperidyl]oxy]phenyl]-5-oxo-7-thioxo-6,8-diazaspiro[3.4]octan-6-yl]-3-(trifluoromethyl)pyridine-2-carbonitrile]	–	> 15100	–	427	–	316	–	> 15100	–	–	–	–	–	–	–	–	2.3	95.6	100	0.3
CN1CCC(Oc2ccc(N3C(=S)N(c4cnc(C#N)c(C(F)(F)F)c4)C(=O)C34CCC4)cc2)CC12CCC2 (racemic) [Cpd 178, (R,S)-5-[8-[4-[(9-methyl-9-azaspiro[3.5]nonan-6-yl)oxy]phenyl]-5-oxo-7-thioxo-6,8-diazaspiro[3.4]octan-6-yl]-3-(trifluoromethyl)pyridine-2-carbonitrile]	–	> 15100	–	234	–	174	–	> 15100	–	–	–	–	–	–	–	–	0	102	104	0.3
N#Cc1ncc(N2C(=O)C3(CCC3)N(c3ccc(OC4CCNC5(CCC5)C4)nc3)C2=S)cc1C(F)(F)F (racemic) [Cpd 188, (R,S)-5-[8-[6-(9-azaspiro[3.5]nonan-6-yloxy)-3-pyridyl]-5-oxo-7-thioxo-6,8-diazaspiro[3.4]octan-6-yl]-3-(trifluoromethyl)pyridine-2-carbonitrile]	0.3	> 15100	104	170	104	219	-0.2	> 15100	–	–	–	–	–	–	–	–	–	–	–	–
CN1CCC(Oc2ccc(N3C(=S)N(c4cnc(C#N)c(C(F)(F)F)c4)C(=O)C34CCC4)cn2)CC12CCC2 (racemic) [Cpd 194, (R,S)-5-[8-[6-[(9-methyl-9-azaspiro[3.5]nonan-6-yl)oxy]-3-pyridyl]-5-oxo-7-thioxo-6,8-diazaspiro[3.4]octan-6-yl]-3-(trifluoromethyl)pyridine-2-carbonitrile]	0.4	> 15100	103	186	103	155	-0.3	> 15100	–	–	–	–	–	–	–	–	–	–	–	–
N#Cc1ncc(N2C(=O)C3(CCC3)N(c3ccc(O[C@@H]4CCN[C@H](CO)C4)cc3)C2=S)cc1C(F)(F)F (racemic) [Cpd 223, 5-[8-(2SR,4RS)[4-[[2-(hydroxymethyl)-4-piperidyl]oxy]phenyl]-5-oxo-7-thioxo-6,8-diazaspiro[3.4]octan-6-yl]-3-(trifluoromethyl)pyridine-2-carbonitrile]	0.4	> 15100	100	229	101	372	0.5	> 15100	–	–	–	–	–	–	–	–	–	–	–	–
CN1CC[C@@H](Oc2ccc(N3C(=S)N(c4cnc(C#N)c(C(F)(F)F)c4)C(=O)C34CCC4)cc2)C[C@H]1CO (racemic) [Cpd 226, 5-[8-(2SR,4RS)[4-[[2-(hydroxymethyl)-1-methyl-4-piperidyl]oxy]phenyl]-5-oxo-7-thioxo-6,8-diazaspiro[3.4]octan-6-yl]-3-(trifluoromethyl)pyridine-2-carbonitrile]	0.2	> 15100	100	36.3	101	60.3	0.4	> 15100	–	–	–	–	–	–	–	–	–	–	–	–
Cc1cc(N2C(=O)C3(CCC3)N(c3ccc(-c4cn[nH]c4)cc3)C2=S)cnc1C#N [Cpd 3, 3-methyl-5-[5-oxo-8-[4-(1H-pyrazol-4-yl)phenyl]-7-thioxo-6,8-diazaspiro[3.4]octan-6-yl]pyridine-2-carbonitrile]	–	> 15100	–	324	–	407	–	> 15100	–	–	–	–	–	–	–	–	1.8	98.9	97.8	2.2
COc1cc(N2C(=S)N(c3cnc(C#N)c(C)c3)C(=O)C23CCC3)ccc1-c1ccc(C)o1 [Cpd 5, 5-{8-[3-methoxy-4-(5-methyl(2-furyl))phenyl]-5-oxo-7-thioxo-6,8-diazaspiro[3.4]oct-6-yl}-3-methylpyridine-2-carbonitrile]	–	> 15100	–	661	–	676	–	> 15100	–	–	–	–	–	–	–	–	3.3	90.3	98.8	1.2
COc1cc(N2C(=O)C3(CCC3)N(c3ccc(CN4CCNCC4)cc3)C2=S)cnc1C#N [Cpd 229, 3-methoxy-5-[5-oxo-8-[4-(piperazin-1-ylmethyl)phenyl]-7-thioxo-6,8-diazaspiro[3.4]octan-6-yl]pyridine-2-carbonitrile]	0	> 15100	101	129	–	–	0	> 15100	–	–	–	–	–	–	–	–	–	–	–	–
